Test results: the CheMixHub ionic liquid set
Several values for one entry are separate records, joined by “and”; a condition that tells them apart may be missing. Equal entries are not always repeated.

Assay: xn = mol fraction of the nth substance listed

CCCn1cc[n+](C)c1.[Br-] + CC(=O)N(C)C
298.15 K, 101 kPa
Settings | viscosity [mPa·s]
x1 = 0.01714 | 1.124
x2 = 0.9358 | 1.653
x2 = 0.9583 | 1.383

CCCn1cc[n+](C)c1.[Br-] + O
Settings | electrical conductivity | viscosity [mPa·s]
298 K, 101 kPa, x2 = 0.22 | 0.14 S/m and 0.17 S/m | –
298 K, 101 kPa, x2 = 0.88 | 9.16 S/m | –
298 K, 101 kPa, x2 = 0.93 | 9.89 S/m | –
298 K, 101 kPa, x2 = 0.98 | 6.44 S/m | –
303.15 K, 100 kPa, x1 = 0.4005 | – | 29.2
323.15 K, 100 kPa, x1 = 0.0497 | – | 1.09

Cn1cc[n+](CCC[n+]2ccn(C)c2)c1.[Br-].[Br-] + O
viscosity [mPa·s], 101 kPa
Settings | x1 = 0.0005912 | x1 = 0.0006805 | x1 = 0.0007474 | x1 = 0.0009122 | x1 = 0.00129 | x1 = 0.00144 | x1 = 0.001838 | x1 = 0.002094 | x1 = 0.002204 | x1 = 0.002491
293.15 K | – | – | – | – | – | 1.05 | 1.066 | 1.071 | 1.071 | 1.084
298.15 K | 0.905 | 0.904 | 0.908 | 0.913 | – | 0.935 | 0.948 | 0.955 | 0.955 | 0.962
303.15 K | 0.812 | 0.811 | 0.816 | – | 0.832 | 0.84 | 0.85 | 0.855 | 0.857 | 0.859
308.15 K | 0.734 | 0.734 | 0.739 | 0.74 | 0.754 | – | 0.768 | 0.77 | 0.774 | 0.775
313.15 K | 0.669 | 0.67 | 0.673 | – | – | 0.693 | 0.7 | 0.702 | 0.705 | 0.708

CCCO + CCCC[n+]1ccn(C)c1.O=S(=O)([N-]S(=O)(=O)C(F)(F)F)C(F)(F)F
Settings | viscosity [mPa·s]
298 K, 100 kPa, x2 = 0 | 1.929

CCCC[n+]1ccn(C)c1.N#C[N-]C#N + [I-].[Li+]
101 kPa, x1 = 1
Settings | electrical conductivity [S/m]
288.15 K | 0.611
298.15 K | 0.883
333.15 K | 2.18
